According to patent publication US9982005B2, “Macrolides and methods of their preparation and use” (President and Fellows of Harvard College, priority 2013, dated 2018):
Read-outs that look alike come from different tables or passages of the source.

Experiments:
[1] = ester bond
[2] = tested on: panels of Gram-positive bacteria; settings: fluorine atom at position C2; cited from earlier work

SMILES: CC[C@H]1OC(=O)[C@H](C)C(=O)[C@H](C)[C@@H](O[C@@H]2OC(C)CC(N(C)C)C2OC(=O)OC)[C@](C)(OC)C[C@@H](C)CN[C@H](C)[C@H]2N(CCCCN=[N+]=[N-])C(=O)O[C@]12C (stereo partly drawn)
- ring closure, yield of all isomers ([1]; from CC[C@@H](O)[C@@]1(C)OC(=O)N(CCCCN=[N+]=[N-])[C@@H]1[C@@H](C)NC[C@H](C)C[C@@](C)(OC)[C@H](O[C@@H]1OC(C)CC(N(C)C)C1OC(=O)OC)[C@@H](C)C1=C(C)C(=O)OC(C)(C)O1, toluene, 3.97 mM, 111.0 °C, 40.0 h): 92%

SMILES: CC[C@H]1OC(=O)[C@@](C)(F)C(=O)[C@H](C)[C@@H](O[C@@H]2O[C@H](C)C[C@H](N(C)C)[C@H]2O)[C@](C)(OC)C[C@@H](C)C(=O)[C@H](C)[C@H]2N(CCCCn3cc(-c4cccc(N)c4)nn3)C(=O)O[C@]12C [solithromycin]
- increase in activity versus the non-fluorinated molecule [2]: 4- to 16 fold

SMILES: CC[C@H]1OC(=O)CC(=O)[C@H](C)[C@@H](O[C@@H]2OC(C)CC(N(C)C)C2OC(=O)OC)[C@](C)(OC)C[C@@H](C)CN[C@H](C)[C@H]2N(CCCCN=[N+]=[N-])C(=O)O[C@]12C (stereo partly drawn)
- ring closure, yield of all isomers ([1]; from CC[C@@H](O)[C@@]1(C)OC(=O)N(CCCCN=[N+]=[N-])[C@@H]1[C@@H](C)NC[C@H](C)C[C@@](C)(OC)[C@H](O[C@@H]1OC(C)CC(N(C)C)C1OC(=O)OC)[C@@H](C)C(=O)CC(=O)OC(C)(C)C, benzene, 9.08 mM, 80.0 °C, 12.0 h): 84%
